Patent US9884063B2, “Amido-substituted azole compounds” (Bayer Pharma Aktiengesellschaft, priority 2014, dated 2018)
Where a name gives a salt, the structure may show the parent alone.

Assays:
[1] = test system: wildtype Wnt signaling cascade; test: HEK293 TOP Assay (Super TopFlash luciferase reporter, Wnt-3a stimulated); assay type: cell-based; conditions: Homo sapiens
Method in brief: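 Compounds (50 μM down to 15 nM, 3.16-fold steps, in CAFTY buffer pH 7.4, 2 mM Ca2+, 0.01% BSA) tested in parallel on TOP and FOP HEK293 reporter lines to define selective wildtype Wnt inhibition. Pathway driven by recombinant human Wnt-3a applied at 2500–5 ng/ml in two-fold dilutions.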

[2] = target: T1, TNKS2 (Homo sapiens, UniProt Q9H2K2); test: Modified TNKS2 Assay 3 (BPS kit #80578, biotin-NAD+, 96 well); assay type: biochemical; conditions: human TNKS2, BPS kit #80578, 96 well
T1 sequence (Q9H2K2 1-1166): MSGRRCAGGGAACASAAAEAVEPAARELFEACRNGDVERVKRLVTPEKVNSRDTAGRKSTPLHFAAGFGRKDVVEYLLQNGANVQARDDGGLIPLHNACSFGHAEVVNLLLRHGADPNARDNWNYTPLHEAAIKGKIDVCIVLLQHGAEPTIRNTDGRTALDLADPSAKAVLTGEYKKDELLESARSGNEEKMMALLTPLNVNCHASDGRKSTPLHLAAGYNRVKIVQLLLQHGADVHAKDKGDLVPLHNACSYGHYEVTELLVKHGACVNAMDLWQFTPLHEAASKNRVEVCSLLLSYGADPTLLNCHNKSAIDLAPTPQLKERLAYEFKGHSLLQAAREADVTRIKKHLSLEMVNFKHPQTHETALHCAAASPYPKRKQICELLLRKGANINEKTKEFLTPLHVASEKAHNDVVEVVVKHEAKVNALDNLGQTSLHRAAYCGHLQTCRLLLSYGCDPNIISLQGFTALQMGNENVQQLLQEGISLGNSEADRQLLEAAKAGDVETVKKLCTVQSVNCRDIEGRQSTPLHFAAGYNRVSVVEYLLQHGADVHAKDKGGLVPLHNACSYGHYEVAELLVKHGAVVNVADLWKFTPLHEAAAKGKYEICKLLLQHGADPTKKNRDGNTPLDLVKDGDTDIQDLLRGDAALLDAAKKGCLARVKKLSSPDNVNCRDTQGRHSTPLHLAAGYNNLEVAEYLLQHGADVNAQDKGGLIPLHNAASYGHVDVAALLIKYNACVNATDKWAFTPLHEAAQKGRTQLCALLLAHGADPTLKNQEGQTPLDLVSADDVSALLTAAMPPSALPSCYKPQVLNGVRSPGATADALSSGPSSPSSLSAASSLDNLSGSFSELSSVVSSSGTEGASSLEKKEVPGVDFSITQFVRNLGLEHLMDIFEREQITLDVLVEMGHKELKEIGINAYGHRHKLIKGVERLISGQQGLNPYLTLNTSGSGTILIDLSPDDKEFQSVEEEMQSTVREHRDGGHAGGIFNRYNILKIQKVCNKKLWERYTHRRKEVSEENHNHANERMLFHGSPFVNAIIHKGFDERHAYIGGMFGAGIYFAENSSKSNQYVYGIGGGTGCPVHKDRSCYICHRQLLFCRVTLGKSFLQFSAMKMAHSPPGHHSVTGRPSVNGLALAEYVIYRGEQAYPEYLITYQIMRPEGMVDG
Method in brief: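 Commercial kit assay measuring TNKS2-catalysed incorporation of biotin-labelled NAD+ into a protein substrate, detected by streptavidin-HRP chemiluminescence. Run per manufacturer's protocol; IC50 is the concentration halving the normalised signal.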

[3] = HEK293, 16 h, HEK293 TOP reporter cell line, Wnt-3a at EC50, 16 hours incubation, compound dilution series 50 μM to 15 nM
[4] = HEK293, 16 h, HEK293 TOP reporter cells, Wnt3a at EC50, 16 hours, luciferase

Row | SMILES | IC50 [1, 3] [nM] | IC50 [2] [nM] | IC50 [1, 4] [nM] | IC50 ([1]; HEK293 TOP reporter cell line, Wnt-3a at EC50, 16 hours incubation, compound dilution series 50 μM to 15 nM) [nM]
1 | CNC(=O)c1nc[nH]c1C(=O)Nc1ccc(NC(=O)c2ccccc2Br)cc1 [Example 37, N^5-{4-[(2-bromobenzoyl)amino]phenyl}-N^4-methyl-1H-imidazole-4,5-dicarboxamide] | 330 | 260 | 330 | 
2 | O=C(Nc1ccc(NC(=O)c2ocnc2C(=O)NCCN2CC[C@H](F)C2)cc1)c1ccc(F)cc1Cl [Example 221, N^5-{4-[(2-chloro-4-fluorobenzoyl)amino]phenyl}-N^4-{2-[(3S)-3-fluoropyrrolidin-1-yl]ethyl}-1,3-oxazole-4,5-dicarboxamide] | 820 | 490 |  | 
3 | O=C(Nc1ccc(NC(=O)c2nc[nH]c2C(=O)N[C@@H]2CCNC2)cc1)c1ccc(F)cc1Cl [Example 282, N^4-{4-[(2-chloro-4-fluorobenzoyl)amino]phenyl}-N^5-[(3R)-pyrrolidin-3-yl]-1H-imidazole-4,5-dicarboxamide hydrochloride salt] |  | 10 |  | 970
4 | NC(=O)c1nc[nH]c1C(=O)Nc1ccc(NC(=O)c2ccccc2Cl)cc1 [Example 120, N^5-{4-[(2-chlorobenzoyl)amino]phenyl}-1H-imidazole-4,5-dicarboxamide] | 1200 | 140 |  | 
5 | COc1cc(NC(=O)c2[nH]cnc2C(=O)NCCN2CCCCC2)ccc1NC(=O)c1ccc(F)cc1Cl [Example 97, N^5-{4-[(2-chloro-4-fluorobenzoyl)amino]-3-methoxyphenyl}-N^4-[2-(piperidin-1-yl)ethyl]-1H-imidazole-4,5-dicarboxamide] | 80 | 20 |  | 
6 | CNC(=O)c1nc[nH]c1C(=O)Nc1ccc(NC(=O)c2ccccc2Cl)c(OC)c1 [Example 99, N^5-{4-[(2-chlorobenzoyl)amino]-3-methoxyphenyl}-N^4-methyl-1H-imidazole-4,5-dicarboxamide] | 540 | 90 |  | 
7 | CNC(=O)c1nc[nH]c1C(=O)Nc1ccc(NC(=O)c2ccc(F)cc2Cl)c(OC)c1 [Example 95, N^5-{4-[(2-chloro-4-fluorobenzoyl)amino]-3-methoxyphenyl}-N^4-methyl-1H-imidazole-4,5-dicarboxamide] | 270 | 60 |  | 
8 | O=C(Nc1ccc(NC(=O)c2nc[nH]c2C(=O)NCCN2CCC(F)(F)CC2)cc1)c1ccc(F)cc1Br [Example 215, N^4-{4-[(2-bromo-4-fluorobenzoyl)amino]phenyl}-N^5-[2-(4,4-difluoropiperidin-1-yl)ethyl]-1H-imidazole-4,5-dicarboxamide] | 400 | 120 |  | 
9 | CNC(=O)c1nc[nH]c1C(=O)Nc1ccc(NC(=O)c2c(C)cc(C)cc2C)cc1 [Example 35, N^5-{4-[(mesitylcarbonyl)amino]phenyl}-N^4-methyl-1H-imidazole-4,5-dicarboxamide] | 760 | > 500 | 760 | 
10 | CNC(=O)c1nc[nH]c1C(=O)Nc1ccc(NC(=O)c2ccc(OC)cc2Cl)cc1 [Example 246, N^5-{4-[(2-chloro-4-methoxybenzoyl)amino]phenyl}-N^4-methyl-1H-imidazole-4,5-dicarboxamide] | 200 | 60 |  | 

Further lines, with some results ahead:

Row | IC50 [1, 3] [nM] | IC50 [2] [nM] | IC50 [1, 4] [nM] | SMILES | IC50 ([1]; HEK293 TOP reporter cell line, Wnt-3a at EC50, 16 hours incubation, compound dilution series 50 μM to 15 nM) [nM]
11 | 120 | 20 |  | O=C(Nc1ccc(NC(=O)c2nc[nH]c2C(=O)NCCN2CCOCC2)cc1)c1ccc(F)cc1Cl [Example 227, N^4-{4-[(2-chloro-4-fluorobenzoyl)amino]phenyl}-N^5-[2-(morpholin-4-yl)ethyl]-1H-imidazole-4,5-dicarboxamide] | 
12 | 140 | 430 |  | O=C(Nc1ccc(NC(=O)c2nc[nH]c2C(=O)NCCO)cc1)c1ccc(F)cc1Cl [Example 132, N^4-{4-[(2-chloro-4-fluorobenzoyl)amino]phenyl}-N^5-(2-hydroxyethyl)-1H-imidazole-4,5-dicarboxamide] | 
13 | 800 | 50 |  | O=C(Nc1ccc(NC(=O)c2nc[nH]c2C(=O)NCCN2CCCC(F)(F)C2)cc1)c1ccc(F)cc1Cl [Example 225, N^4-{4-[(2-chloro-4-fluorobenzoyl)amino]phenyl}-N^5-[2-(3,3-difluoropiperidin-1-yl)ethyl]-1H-imidazole-4,5-dicarboxamide] | 
14 | 360 | 20 |  | CC1CCN(CCCNC(=O)c2nc[nH]c2C(=O)Nc2ccc(NC(=O)c3ccc(F)cc3Cl)cc2)CC1 [Example 400, N^5-{4-[(2-chloro-4-fluorobenzoyl)amino]phenyl}-N^4-[3-(4-methylpiperidin-1-yl)propyl]-1H-imidazole-4,5-dicarboxamide] | 
15 | 120 | 60 |  | O=C(Nc1ccc(NC(=O)c2nc[nH]c2C(=O)N2CCC2)cc1)c1ccc(F)cc1Cl [Example 142, 5-(azetidin-1-ylcarbonyl)-N-{4-[(2-chloro-4-fluorobenzoyl)amino]phenyl}-1H-imidazole-4-carboxamide] | 
16 | 30 | 0.9 |  | C[C@H]1CCCCN1CCNC(=O)c1[nH]cnc1C(=O)Nc1ccc(NC(=O)c2ccc(F)cc2Cl)cc1 [Example 266, N^4-{4-[(2-chloro-4-fluorobenzoyl)amino]phenyl}-N^5-{2-[(25)-2-methylpiperidin-1-yl]ethyl}-1H-imidazole-4,5-dicarboxamide formic acid salt] | 
17 | 260 | > 500 |  | O=C(Nc1ccc(NC(=O)c2nc[nH]c2C(=O)NCC2CC2)cc1)c1ccc(F)cc1Cl [Example 128, N^4-{4-[(2-chloro-4-fluorobenzoyl)amino]phenyl}-N^5-(cyclopropylmethyl)-1H-imidazole-4,5-dicarboxamide] | 
18 | 360 | 350 |  | O=C(Nc1ccc(NC(=O)c2nc[nH]c2C(=O)NCC(F)F)cc1)c1ccc(F)cc1Cl [Example 139, N^4-{4-[(2-chloro-4-fluorobenzoyl)amino]phenyl}-N^5-(2,2-difluoroethyl)-1H-imidazole-4,5-dicarboxamide] | 
19 | 330 | 340 |  | CC(C)(O)CNC(=O)c1[nH]cnc1C(=O)Nc1ccc(NC(=O)c2ccc(F)cc2Cl)cc1 [Example 223, N^4-{4-[(2-chloro-4-fluorobenzoyl)amino]phenyl}-N^5-(2-hydroxy-2-methylpropyl)-1H-imidazole-4,5-dicarboxamide] | 
20 | 190 | 40 |  | O=C(Nc1ccc(NC(=O)c2[nH]cnc2C(=O)NC2CC2)cc1)c1ccc(F)cc1Cl [Example 45, N^5-{4-[(2-chloro-4-fluorobenzoyl)amino]phenyl}-N^4-cyclopropyl-1H-imidazole-4,5-dicarboxamide] | 
21 | 220 | 40 |  | O=C(Nc1ccc(NC(=O)c2nc[nH]c2C(=O)NCCN2CC[C@H](F)C2)cc1)c1ccc(F)cc1Cl [Example 232, N^4-{4-[(2-chloro-4-fluorobenzoyl)amino]phenyl}-N^5-{2-[(3S)-3-fluoropyrrolidin-1-yl]ethyl}-1H-imidazole-4,5-dicarboxamide] | 
